For orientation: IC50 means the concentration that inhibits the measured activity by half.

In series [1] the test system is rat brain membranes. Kind of series: radioreceptor binding assay. The note with it: for IC50: 1 nM radioligand, 1 h at 23°. The method, then:
The radioreceptor binding assay used well washed rat brain membranes that had been incubated for 30 min at 37° with 100 mM NaCl to remove bound endogenous ligands. Blume (1978) Proc. Natl. Acad. Sci. 75, 1713. Several radioligands (1 nM final concentration) and competing ligands were tested. Competing ligands were added to the membrane suspension in Tris buffer, pH 7.4 at 23°, and radioligand was added immediately thereafter. Assay volume was 500 μl. After incubation (1 h, 23°), the mixture was chilled, filtered, washed twice, and counted.
Washed membranes from rat brain homogenate, 1 h incubation at 23°. Data are IC50 values (nM) from complete log dose-inhibition curves for inhibition of stereospecific binding of the various radioligands. […] DADLE=D-ala^2 -D-leu^5 -enkephalin. DHM=dihydromorphine.

Series [2] relates to guinea pig ileum myenteric plexus-longitudinal muscle preparation. Kind of series: guinea pig ileum myenteric plexus-longitudinal muscle preparation bioassay. In kind it is cell-based. The note with it: for IC50: inhibition of electrically stimulated twitch, geometric mean of several muscle strips. An excerpt:
Starting material was 100 g MSH concentrate, the second oxycellulose adsorbate in commercial ACTH production from procine pituitary glands (Schally et al (1962) Endocrinology 71, 164). The initial steps, with 25 g batches, have been described in Lowney et al (1979) Life Sci. 24, 2377: extraction and back-extraction with butanol; separation from β-endorphin on Bio-Gel P6; preparative reversed-phase HPLC on C18 columns, first with a methanol gradient in trifluoroacetic acid (TFA), then with an acetonitrile gradient in Tris buffer at neutrality, followed by elution of the active material with TFA. Every step was monitored by assay on the guinea pig ileum myenteric plexus-longitudinal muscle preparation. Kosterlitz & Waterfled (1975) Ann. Rev. Pharmacol. 15, 29; Schulz & Goldstein (1973) Brit. J. Pharmacol. 48, 655.
(§1) The guinea pig ileum myenteric plexus-longitudinal muscle preparation was used as described in Kosterlitz et al, supra, and Schulz & Goldstein, supra. […] Geometric means of IC50 values from several muscle strips were obtained, with standard errors in log units. Kd values for naloxone as an antagonist were determined from the ratio of IC50 values in the presence and absence of a fixed naloxone concentration. The mouse vas deferens was used as described in Hughes at al (1975) Brit. J. Pharmacol. 53, 371. IC50 and naloxone Kd values were determined as above.
(§2) Effects of dynorphin-(1-13) in two bioassays. […] Naloxone Kd is the apparent dissociation constant of the antagonist, computed from the equation Kd =[…]/(D.R.-1), derived from the mass law for competitive antagonism, where C=concentration of naloxone (here 100 nM), and D.R.=dose ratio of agonist, the ratio of IC50 doses in the presence and absence of the antagonist. The same procedures were followed with the mouse vas deferens. IC50 values are geometric means, with standard errors in log units, number of tissue preparations in parentheses. Kd determinations were based on four tissue preparations. RX-1 is des-arg^6 -dynorphin-(1-13); RS-2 has gly^6 insertion in dynorphin-(1-13).

The subject of series [3] is mouse vas deferens. Kind of series: mouse vas deferens bioassay. In kind it is cell-based. The note with it: for IC50: inhibition of electrically stimulated twitch, geometric mean; for Potency in mouse vas deferens / potency in guinea pig ileum: ratio of potencies in the two bioassays. As to the method: as §1, §2
Series [4] concerns antiserum to dynorphin (1-13)-thyroglobulin conjugate. Kind of series: dynorphin radioimmunoassay. In kind it is binding, rabbit. An excerpt: The subject dynorphin was used for the development of immunoassays, illustrated particularly by a radioimmunoassay. For carrying out the immunoassay, it is necessary to prepare antigens which specifically recognize the oligopeptide, in this case dynorphin. To prepare antigen conjugates, thyroglobulin was conjugated to synthetic dynorphin (1-13). The procedure for preparing the antigen conjugate, injecting the antigen conjugate into animals and isolating the antisera is described as follows.
Synthetic dynorphin (1-13) (3.25 μmoles, 5.2 mg) was dissolved in 2 ml of 100 mM sodium phosphate buffer at neutrality. To the mixture was added with agitation 10^5 cpm of ^125 I-dynorphin to serve as a tracer. After addition of the tracer, 26 mg of thyroglobulin (bovine type 1, Sigma) was added and the mixture cooled in an ice-bath after the thyroglobulin dissolved. A 1:100 dilution with cold water of glutaraldehyde (Sigma, Grade 1, 25% aqueous solution) (1 ml) was added dropwise with stirring in a cold room at 4° and agitation continued for 30 min., followed by warming to room temperature and continuing the stirring for 3 hrs.
Based on the coupling efficiency calculated from the cpm of the dialysis bag residue, after lyophilizing, sufficient of the conjugate was employed to provide 50-100 μg of coupled oligopeptide per rabbit. For six rabbits, the dry material was added to 4 ml of 0.9% NaCl, followed by 4 ml of Freund's incomplete adjuvant. The mixture was uniformly dispersed by drawing up and down in a syringe and needle for 30 mins., the mixture divided into six aliquots and approximately 10 to 12 interdermal injections made in a shaved New Zealand White X San Juan hybrid rabbit. Booster injections were made at two week intervals, with a bleeding taken 10 days after the fourth booster shot, 50 ml of blood being removed from the ear artery, allowed to clot, the serum removed and stored frozen.
In small borosilicate tubes was added 25 μl dynorphin (equimolar to Na ^125 I), 50 μl Na ^125 I, and 20 μl chloramine-T and the mixture allowed to react at room temperature for 30-45 mins. The reaction was terminated by adding 100 μl of sodium metabisulfite. After washing a Sephadex G-15 column (1.2×35 cm) with 0.25 M acetic acid and 0.1% bovine serum albumin, the reaction mixture was added and eluted with the same solvent, collecting 1 ml fractions at a rate of 0.3 ml/min, collecting a total of 50 fractions.
Antiserum: A 1:10 dilution of the antiserum in 50 mM sodium phosphate buffer, pH7.4, containing 50 mM NaCl was diluted 1:10^4 with buffer B;
Dynorphin (1-13) standard: Standards were prepared by taking 10 μl of a 10 mM stock solution in water and adding 990 μl of methanolic HCl to make a […] dynorphin solution followed by 1:100 dilutions to provide the desired series.
^125 I-dynorphin (1-13) trace: The trace stored in 0.25 M acetic acid containing 0.1% BSA was diluted to about 5,000 cpm/100 μl with buffer B.
The procedure for the assay was as follows: All solutions were in ice at the outset and all operations were carried out in ice. In a […] borosilicate glass tube was added in the following order 100 μl of dynorphin (1-13) standard or test sample in methanolic HCl; 100 μl of the antiserum dilution; and 100 μl of the trace, followed by incubation at 0°-4° for 24 hrs. Incubation was terminated with a charcoal mixture prepared by mixing 3 g Norit A, 0.3 g dextran, 15 ml horse serum and the mixture brought to 100 ml with buffer A and mixed for 10 min in a cold room before use. To each incubation tube was added 1 ml of a charcoal mixture, the mixture vortexed followed by incubation for 5 min in a cold room and then centifuged at 5000×g for 15 min in a Beckman Model J6B (4200 rpm). To a 13×100 mm borosilicate glass tube was transferred 850 μl of the supernatant and the tube counted for 5 min in a gamma counter.

A short description of series [5]: treatment with cyanogen bromide.
[6] abbreviates: ^a = unusually shallow slope, read-out: IC50 for inhibition of stereospecific binding, radioligand 3H-DADLE.
The mark [7] stands for this setting: ^a = unusually shallow slope, read-out: IC50 for inhibition of stereospecific binding, radioligand 3H-DHM.

Like-named read-outs stand apart in the source and are kept apart here.

As for `C=CCN1CC[C@]23CCCC[C@H]2[C@H]1Cc1ccc(O)cc13` [levallorphan], the “displacement of radioligand (stereospecific saturable binding)” value in series [1] (1 μM final concentration) is “about 70 % of total binding”.

Take `C=CCN1CC[C@@]23CCCC[C@@H]2[C@@H]1Cc1ccc(O)cc13` [dextrallorphan]: in series [1] (1 μM competing ligand), the “effect on radioligand binding” value was “without effect”.

On to “H-tyr-gly-gly-phe-leu-arg-arg-ile-arg-pro-lys-leu-lys-OH [Dynorphin-(1-13)]”, for which the “potency relative to leu-enkephalin” value in series [2] (guinea pig ileum test) is “about 1000 x”. In addition, the “potency relative to normorphine” value in series [2] (guinea pig ileum test) is reported as “about 350 x”. Besides, the “potency relative to β-endorphin” value in series [2] (guinea pig ileum test) is on record as “about 30 x”. Moreover, the IC50 in series [2] was 0.63 nM; in series [3], 7.5 nM; in series [1] (setting [6]) it was 43 nM; in series [1] (setting [7]), 16 nM. For the same molecule, in series [2] (unlike β-endorphin), the “persistence in the guinea pig ileum test” value is recorded as “long persistence”. For the same molecule, the “Potency in mouse vas deferens / potency in guinea pig ileum” value in series [3] amounted to 0.08. Besides, the B/Bo in series [4] (1 × 10^-13 moles dynorphin per assay tube) stood at 15; in series [4] (1 × 10^-14 moles dynorphin per assay tube), 45; in series [4] (1 × 10^-15 moles dynorphin per assay tube) it was 85; in series [4] (1 × 10^-16 moles dynorphin per assay tube) it was 100; in series [4] (5 × 10^-13 moles dynorphin per assay tube) it was 5; in series [4] (5 × 10^-14 moles dynorphin per assay tube), 30. For the same molecule, the B/Bo stood at 75 in series [4] (5 × 10^-15 moles dynorphin per assay tube) and 100 in series [4] (5 × 10^-16 moles dynorphin per assay tube). Besides, the “resistance to treatment with cyanogen bromide” value in series [5] was “relatively resistant”.

With βc -endorphin [reference compound], the concentration for half-maximal inhibition (IC50) in series [2] came to 34 nM; in series [1] (setting [6]) it was 2.1 nM; in series [1] (setting [7]), 1.8 nM. Further, the “Potency in mouse vas deferens / potency in guinea pig ileum” value in series [3] came out at 1.5.

Regarding `Oc1ccc2c3c1O[C@H]1[C@@H](O)C=C[C@H]4[C@@H](C2)NCC[C@@]341` [Normorphine], the concentration for half-maximal inhibition (IC50) amounted to 120 nM in series [2] (Cavia porcellus); 230 nM in series [3] (Mus musculus); 5 nM in series [1] (setting [7]); 260 nM in series [1] (with Na, read-out: IC50 for inhibition of stereospecific binding, radioligand 3H-naloxone +Na); 21 nM in series [1] (without Na, read-out: IC50 for inhibition of stereospecific binding, radioligand 3H-naloxone -Na).

The values are drawn from US4396606A, “Novel polypeptide analgesics” (Addiction Research Foundation, priority 1979, dated 1983).
